In patent publication US20240293413A1, “COMPOUND AND METHOD FOR TREATING CHEMOTHERAPY-RELATED GASTROINTESTINAL SIDE EFFECTS” (ONQUALITY PHARMACEUTICALS CHINA LTD., priority 2021, published 2024):

Experiments:
[1] = system: diarrhea caused by a chemotherapeutic agent in Balb/c mice; assay: Examples 382-405 (Table 7): various administration modes of the CDK inhibitor, relief of diarrhea caused by a chemotherapeutic agent; type: in vivo
Text: Balb/c mice were fed for 1 week, and then divided into groups. The experiment was divided into a control group, a chemotherapeutic agent group, CDK inhibitor groups (including an oral administration group of a CDK inhibitor, an intraperitoneal injection group of a CDK inhibitor, an intramuscular injection group of a CDK inhibitor, a local administration group of a CDK inhibitor), each of which comprised 10 mice, to perform the administration experiment, for which the administration dosage, mode, time and frequency were shown in Table 7. The control group: being administered with the same solvent as that used in the CDK inhibitor group (the time and mode were shown in Table 7), and then being injected/intragastrically administered with the same solvent as that used in the chemotherapeutic agent group (the administration mode was shown in Table 7): the chemotherapeutic agent group: being administered with the same solvent as that used in the CDK inhibitor group (the time and mode were shown in Table 7), and then being injected/intragastrically administered with the chemotherapeutic agent (the type, administration mode and dosage were shown in Table 7): the oral administration group of the CDK inhibitor: being intragastrically administered with the CDK inhibitor (the time was shown in Table 7), and then being administered with the chemotherapeutic agent (the mode and dosage were shown in Table 7): the intraperitoneal injection group of the CDK inhibitor: being intraperitoneally injected with the CDK inhibitor (the time was shown in Table 7), and then being administered with the chemotherapeutic agent (the mode and dosage were shown in Table 7): the intramuscular injection group of the CDK inhibitor: being intramuscularly injected with the CDK inhibitor (the time was shown in Table 7), and then being administered with the chemotherapeutic agent (the mode and dosage were shown in Table 7); and the local administration group of the CDK inhibitor: the hair on the abdomen of mice was shaved (about 2 cm*2 cm), being applied with the CDK inhibitor (the time was shown in Table 7), and then being administered with the chemotherapeutic agent (the mode and dosage were shown in Table 7).
The diarrhea grading of mice was observed and recorded every day.

[2] = system: Chemotherapeutic agent-caused diarrhea models of Balb/c mice; assay: Examples 1-229 (Table 3): oral CDK inhibitor, relief of diarrhea caused by a chemotherapeutic agent; type: in vivo;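 also: percent of treated mice whose diarrhea grade fell below chemotherapy-group average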

## CN(C)C(=O)c1cc2cnc(Nc3ccc(N4CCNCC4)cn3)nc2n1C1CCCC1 [Ribociclib]
[1]; Example 389, Carboplatin (CBP) intraperitoneal injection 120 mg/kg single, CDK inhibitor intraperitoneal injection 200 mg/kg single, 0.5 h before, cycle 10 days
  Relative remission rate of other administration mode: 10%
[1]; Example 389, Carboplatin (CBP) intraperitoneal injection 120 mg/kg single, CDK inhibitor oral 200 mg/kg single, 0.5 h before, cycle 10 days
  Relative remission rate of oral administration: 30%
[1]; Example 390, Carboplatin (CBP) intraperitoneal injection 120 mg/kg single, CDK inhibitor intraperitoneal injection 200 mg/kg single, 4 h before, cycle 10 days
  Relative remission rate of other administration mode: 10%
[1]; Example 390, Carboplatin (CBP) intraperitoneal injection 120 mg/kg single, CDK inhibitor oral 200 mg/kg single, 4 h before, cycle 10 days
  Relative remission rate of oral administration: 50%
[1]; Example 391, Carboplatin (CBP) intraperitoneal injection 120 mg/kg single, CDK inhibitor intraperitoneal injection 200 mg/kg single, 8 h before, cycle 10 days
  Relative remission rate of other administration mode: 10%
[1]; Example 391, Carboplatin (CBP) intraperitoneal injection 120 mg/kg single, CDK inhibitor oral 200 mg/kg single, 8 h before, cycle 10 days
  Relative remission rate of oral administration: 50%
[1]; Example 392, Carboplatin (CBP) intraperitoneal injection 120 mg/kg single, CDK inhibitor intraperitoneal injection 200 mg/kg single, 12 h before, cycle 10 days
  Relative remission rate of other administration mode: 20%
[1]; Example 392, Carboplatin (CBP) intraperitoneal injection 120 mg/kg single, CDK inhibitor oral 200 mg/kg single, 12 h before, cycle 10 days
  Relative remission rate of oral administration: 40%
[1]; Example 393, Carboplatin (CBP) intraperitoneal injection 120 mg/kg single, CDK inhibitor intraperitoneal injection 200 mg/kg single, 24 h before, cycle 10 days
  Relative remission rate of other administration mode: 10%
[1]; Example 393, Carboplatin (CBP) intraperitoneal injection 120 mg/kg single, CDK inhibitor oral 200 mg/kg single, 24 h before, cycle 10 days
  Relative remission rate of oral administration: 40%
[1]; Example 401, Gemcitabine (GEM) oral administration 300 mg/kg single, CDK inhibitor local administration 100 mg/kg single, 24 h before, cycle 8 days
  Relative remission rate of other administration mode: 20%
[1]; Example 401, Gemcitabine (GEM) oral administration 300 mg/kg single, CDK inhibitor oral 100 mg/kg single, 24 h before, cycle 8 days
  Relative remission rate of oral administration: 50%
[1]; diarrhea caused by docetaxel, carboplatin, gemcitabine, and gemcitabine plus carboplatin, under certain conditions, effect of oral administration most significant
  relief of diarrhea by oral, injection and local administration: can relieve diarrhea
[2]; Example 45, Fluorouracil (5-Fu) intravenous injection 175 mg/kg single, CDK inhibitor oral 200 mg/kg single 0.5 h before, cycle 8 days
  Relative remission rate (%): 40%
[2]; Example 113, Irinotecan (CPT-11) oral administration 300 mg/kg single, CDK inhibitor oral 100 mg/kg single 24 h before, cycle 11 days
  Relative remission rate (%): 60%
[2]; Example 167, Docetaxel (DTX) intravenous injection 10 mg/kg single, CDK inhibitor oral 200 mg/kg single 9 h before, cycle 8 days
  Relative remission rate (%): 80%
[2]; Example 229, Etoposide 60 mg/kg and carboplatin 5 mg/kg intraperitoneal injection single, CDK inhibitor oral 200 mg/kg single, 12 h before, 10 days
  Relative remission rate (%): 50%
